Data taken from patent US6080746A, “Methods and compositions for the prophylaxis and treatment of cytomegalovirus infections” (priority 1991, dated 2000).
Values after ≈ are worked out from the molar mass of the structure shown. Like-named read-outs stand apart in the source and are kept apart here.

Legend:
human CMV = test: Plaque reduction assay against human CMV (ED50); type: cell-based
[1] = system: human cytomegalovirus (strain AD 169); test: Inhibition of human cytomegalovirus in MRC5 cells by plaque reduction assay (reduction of CPE, MIC50; Table 1); type: cell-based; details: for inhibition at 0.032 µg/mL: 0.032 μg/ml; for inhibition at 0.1 µg/mL: 0.1 μg/ml
Text: (§1) In each case, drug treatment began 0 hr. postinfection.

[2] = system: human diploid embryonic lung cells (MRC5); test: Drug cytotoxicity (gross morphology) in MRC5 cells (Table 1)
Text: Also evaluated under the same conditions were prior art drugs Ara-A and ganciclovir (DHPG). In each case, drug treatment began 0 hr. postinfection.

CMV [3] = test: MIC50 against CMV in MRC5 cells; type: cell-based; details: Human betaherpesvirus 5
HCMV [4] = test: Virus yield-reduction assay, combination with DHPG on HCMV replication in MRC5 cells (Table 2); type: cell-based, human CMV; details: DHPG 0
Text: Effect of Combination Treatment^a With (±)-2'-CDG and
DHPG on HCMV Replication in MRC5 Cells
(§2) (Virus Yield-Reduction Assay)

CMV [5] = test: CMV yields in MRC5 cell monolayer cultures by plaque assay (Tables 4 and 5); type: cell-based; details: virus control 5.5
Method: (§3) The effectiveness of racemic 2'-CdG and of D-2'-CdG on CMV yields in MRC5 cell monolayer cultures was determined by a plaque assay with the results set forth in Tables 4 and 5:
(§4) ^a Drug treatment began immediately following the virus adsorption
(§5) ^a Drug treatment began immediately following the 1 1/2 hour

[6] = system: human cytomegalovirus (strain AD 169); test: CMV yield in MRC5 cells (Table 1); type: cell-based
Text: as §1

CMV [7] = test: Reduction of CPE in CMV-infected MRC5 cell monolayer cultures (Tables 4 and 5); type: cell-based; details: Human betaherpesvirus 5, MRC5, read-out: Reduction (%) of CPE by CDG at Time of Harvest
Method: as §3, §4, §5

HCMV [8] = test: Virus yield-reduction assay, combination with papaverine on HCMV replication in MRC5 cells (Table 3); type: cell-based, human CMV
Text: The following results were obtained in testing mixtures of racemic 2'-CdG and papaverine under the same conditions:
Effect of Combination Treatment^a With Papaverine and
(±)-2'-CDG and on HCMV Replication in MRC5 Cells
as §2, §4

MRC5 cells = test: Drug cytotoxicity (gross morphology) in MRC5 cell monolayer cultures (Tables 4 and 5); type: cell-based, human
Method: as §3, §4, §5

cytomegalovirus = details: cited from earlier work; for treatment of cytomegalovirus retinitis: Rosecan et al. 1986 / reported
[9] = 0.1 μg/ml, virus control 5.5 (DHPG 5.3)
[10] = 0.32 μg/ml, virus control 5.5 (DHPG 5.3)
[11] = 1.0 μg/ml, virus control 5.5 (DHPG 5.3)
[12] = 3.2 μg/ml, virus control 5.5 (DHPG 5.3)
[13] = 10 μg/ml, virus control 5.5 (DHPG 5.3)
[14] = Human betaherpesvirus 5, MRC5, treatment 0 hr postinfection, read-out: Reduction (%) of CPE at Time of Harvest
[15] = Human betaherpesvirus 5, 0.32 μg/ml, MRC5, treatment 0 hr postinfection, read-out: Reduction (%) of CPE at Time of Harvest
[16] = Human betaherpesvirus 5, 1.0 μg/ml, MRC5, treatment 0 hr postinfection, read-out: Reduction (%) of CPE at Time of Harvest
[17] = Human betaherpesvirus 5, 3.2 μg/ml, MRC5, treatment 0 hr postinfection, read-out: Reduction (%) of CPE at Time of Harvest
[18] = Human betaherpesvirus 5, 10 μg/ml, MRC5, treatment 0 hr postinfection, read-out: Reduction (%) of CPE at Time of Harvest
[19] = Human betaherpesvirus 5, MRC5, 0 h, read-out: Reduction (%) of CPE at Time of Harvest

## CC(C)C(=O)OC[C@H]1O[C@@H](n2cnc3c(=O)[nH]c(N)nc32)C[C@@H]1OC(=O)C(C)C (racemic) [racemic 2'-deoxyguanosine-3',5'-0-diisobutyrate, 2'-deoxyguanosine-3',5'-0-diisobutyrate]
Human CMV
  ED50: 3.9 µg/mL (≈ 9.57 µM)

## Nc1nc(N)c2ncn([C@@H]3C[C@H](CO)[C@@H](O)[C@H]3O)c2n1 (relative stereo) [DAPR]
[1]; Human betaherpesvirus 5, MRC5, tested under the same conditions as Table 1
  IC50: 8.7 µg/mL (≈ 31 µM)
[1]; tested under the same conditions as Table 1
  therapeutic index: 40

## Nc1nc2c(ncn2[C@@H]2C[C@H](CO)[C@@H](O)C2)c(=O)[nH]1 (relative stereo) [±2'-CdG]
[2]; 0.032 μg/ml
  Drug Cytotoxicity (gross morphology): 0
[2]; 0.1 μg/ml
  Drug Cytotoxicity (gross morphology): 0
[2]; 0.32 μg/ml
  Drug Cytotoxicity (gross morphology): 0
[2]; 1.0 μg/ml
  Drug Cytotoxicity (gross morphology): 0
[2]; 3.2 μg/ml
  Drug Cytotoxicity (gross morphology): v. sl. toxic
[2]; 10 μg/ml
  Drug Cytotoxicity (gross morphology): sl. toxic
[2]; 32 μg/ml
  Drug Cytotoxicity (gross morphology): toxic
CMV [3]
  IC50: 0.069 µg/mL (≈ 0.26 µM)
HCMV [4]; (±)-2'-CDG 0.1 (mM as printed)
  Reduction in CMV Yield: 0.1 Log10 PFU/ML
HCMV [4]; (±)-2'-CDG 0.32 (mM as printed)
  Reduction in CMV Yield: 0.5 Log10 PFU/ML
HCMV [4]; (±)-2'-CDG 1.0 (mM as printed)
  Reduction in CMV Yield: 0.6 Log10 PFU/ML
HCMV [4]; (±)-2'-CDG 3.2 (mM as printed)
  Reduction in CMV Yield: 1.0 Log10 PFU/ML
CMV [5]; Table 4, 0.032 μg/mL
  CMV Yield: 5.4 log10 CCID50 /mL
CMV [5]; Table 4, 0.1 μg/mL
  CMV Yield: 5.0 log10 CCID50 /mL
CMV [5]; Table 4, 0.32 μg/mL
  CMV Yield: 4.5 log10 CCID50 /mL
CMV [5]; Table 4, 1.0 μg/mL
  CMV Yield: 3.6 log10 CCID50 /mL
CMV [5]; Table 4, 3.2 μg/mL
  CMV Yield: 1.0 log10 CCID50 /mL
CMV [5]; Table 4, 10 μg/mL
  CMV Yield: 0 log10 CCID50 /mL
[6]; 0.032 μg/ml, virus control 5.5
  CMV Yield: 5.4 log10 CCID50 /ml
[6]; [9]
  CMV Yield: 5.0 log10 CCID50 /ml
[6]; [10]
  CMV Yield: 4.5 log10 CCID50 /ml
[6]; [11]
  CMV Yield: 3.6 log10 CCID50 /ml
[6]; [12]
  CMV Yield: 1.0 log10 CCID50 /ml
[6]; [13]
  CMV Yield: 0 log10 CCID50 /ml
CMV [7]; Table 4, 0.032 μg/mL
  inhibition at 0.032 µg/mL: 0%
CMV [7]; Table 4, 0.1 μg/mL
  inhibition at 0.1 µg/mL: 0%
CMV [7]; Table 4, 0.32 μg/mL
  inhibition at 0.32 µg/mL: 20%
CMV [7]; Table 4, 1.0 μg/mL
  inhibition at 1 µg/mL: 95%
CMV [7]; Table 4, 3.2 μg/mL
  inhibition at 3.2 µg/mL: 100%
CMV [7]; Table 4, 10 μg/mL
  inhibition at 10 µg/mL: 100%
HCMV [8]; (±)-2'-CDG 0.32 (mM as printed), papaverine (DHPG) 0
  Reduction in CMV Yield: 0.7 Log10 PFU/ML
HCMV [8]; (±)-2'-CDG 1.0 (mM as printed), papaverine (DHPG) 0
  Reduction in CMV Yield: 1.0 Log10 PFU/ML
HCMV [8]; (±)-2'-CDG 3.2 (mM as printed), papaverine (DHPG) 0
  Reduction in CMV Yield: 1.7 Log10 PFU/ML
HCMV [8]; (±)-2'-CDG 10.0 (mM as printed), papaverine (DHPG) 0
  Reduction in CMV Yield: 2.7 Log10 PFU/ML
MRC5 cells; Table 4, 0.032 μg/mL
  Drug Cytotoxicity (gross morphology): 0
MRC5 cells; Table 4, 0.1 μg/mL
  Drug Cytotoxicity (gross morphology): 0
MRC5 cells; Table 4, 0.32 μg/mL
  Drug Cytotoxicity (gross morphology): 0
MRC5 cells; Table 4, 1.0 μg/mL
  Drug Cytotoxicity (gross morphology): 0
MRC5 cells; Table 4, 3.2 μg/mL
  Drug Cytotoxicity (gross morphology): v. sl.
MRC5 cells; Table 4, 10 μg/mL
  Drug Cytotoxicity (gross morphology): sl. toxicity
MRC5 cells; Table 4, 32 μg/mL
  Drug Cytotoxicity (gross morphology): toxic
[1]; [14]
  inhibition at 0.032 µg/mL: 0%
  inhibition at 0.1 µg/mL: 0%
[1]; [15]
  inhibition at 0.32 µg/mL: 20%
[1]; [16]
  inhibition at 1 µg/mL: 95%
[1]; [17]
  inhibition at 3.2 µg/mL: 100%
[1]; [18]
  inhibition at 10 µg/mL: 100%

## Nc1nc(N)c2ncn([C@@H]3C[C@H](CO)[C@@H](O)C3)c2n1 (relative stereo) [±C-2,6'-DAPdR]
[2]; 0.032 μg/ml
  Drug Cytotoxicity (gross morphology): 0
[2]; 0.1 μg/ml
  Drug Cytotoxicity (gross morphology): 0
[2]; 0.32 μg/ml
  Drug Cytotoxicity (gross morphology): 0
[2]; 1.0 μg/ml
  Drug Cytotoxicity (gross morphology): 0
[2]; 3.2 μg/ml
  Drug Cytotoxicity (gross morphology): v. sl. toxic
[2]; 10 μg/ml
  Drug Cytotoxicity (gross morphology): sl. toxic
[2]; 32 μg/ml
  Drug Cytotoxicity (gross morphology): toxic
[6]; 0.032 μg/ml, virus control 5.5
  CMV Yield: 5.3 log10 CCID50 /ml
[6]; [9]
  CMV Yield: 5.0 log10 CCID50 /ml
[6]; [10]
  CMV Yield: 4.0 log10 CCID50 /ml
[6]; [11]
  CMV Yield: 3.4 log10 CCID50 /ml
[6]; [12]
  CMV Yield: 0 log10 CCID50 /ml
[6]; [13]
  CMV Yield: 0 log10 CCID50 /ml
[1]; [14]
  inhibition at 0.032 µg/mL: 0%
  inhibition at 0.1 µg/mL: 0%
[1]; [15]
  inhibition at 0.32 µg/mL: 25%
[1]; [16]
  inhibition at 1 µg/mL: 95%
[1]; [17]
  inhibition at 3.2 µg/mL: 100%
[1]; [18]
  inhibition at 10 µg/mL: 100%

## Nc1ncnc2c1ncn2[C@@H]1O[C@H](CO)[C@@H](O)[C@@H]1O [Ara-A, reference compound]
[2]; 0.32 μg/ml
  Drug Cytotoxicity (gross morphology): 0
[2]; 1.0 μg/ml
  Drug Cytotoxicity (gross morphology): 0
[2]; 3.2 μg/ml
  Drug Cytotoxicity (gross morphology): 0
[2]; 10 μg/ml
  Drug Cytotoxicity (gross morphology): 0
[6]; [10]
  CMV Yield: 5.2 log10 CCID50 /ml
[6]; [11]
  CMV Yield: 4.9 log10 CCID50 /ml
[6]; [12]
  CMV Yield: 4.7 log10 CCID50 /ml
[6]; [13]
  CMV Yield: 3.4 log10 CCID50 /ml
[6]; 32 μg/ml, virus control 5.5 (DHPG 5.3)
  CMV Yield: 0.6 log10 CCID50 /ml
[6]; 100 μg/ml, virus control 5.5 (DHPG 5.3)
  CMV Yield: 0 log10 CCID50 /ml
cytomegalovirus
  treatment of cytomegalovirus retinitis: unsuccessful
[1]; [19]
  inhibition at 0.32 µg/mL: 0%
  inhibition at 1 µg/mL: 0%
  inhibition at 3.2 µg/mL: 5%
  inhibition at 10 µg/mL: 90%
  inhibition at 32 µg/mL: > 95%
  inhibition at 100 µg/mL: 100%

## CCCCC(=O)OC[C@H]1O[C@@H](n2cnc3c(=O)[nH]c(N)nc32)C[C@@H]1O [D-2'-deoxyguanosine-5'-0-valerate]
Human CMV
  ED50: 0.09 µg/mL (≈ 0.256 µM)

## COc1ccc(Cc2nccc3cc(OC)c(OC)cc23)cc1OC [Papaverine, reference compound]
HCMV [8]; (±)-2'-CDG 0, papaverine (DHPG) 1.0 μM
  Reduction in CMV Yield: 0 Log10 PFU/ML
HCMV [8]; (±)-2'-CDG 0, papaverine (DHPG) 3.2 μM
  Reduction in CMV Yield: 0.2 Log10 PFU/ML
HCMV [8]; (±)-2'-CDG 0, papaverine (DHPG) 10.0 μM
  Reduction in CMV Yield: 0.6 Log10 PFU/ML
HCMV [8]; (±)-2'-CDG 0, papaverine (DHPG) 32.0 μM
  Reduction in CMV Yield: 1.4 Log10 PFU/ML

## Nc1nc2c(ncn2COCCO)c(=O)[nH]1 [acyclovir]
cytomegalovirus; CMV retinitis, reported
  activity against CMV retinitis: ineffective
cytomegalovirus
  treatment of cytomegalovirus retinitis: unsuccessful
cytomegalovirus; established systemic CMV infections, reported
  activity against established systemic CMV infections: ineffective

## alpha-interferon
cytomegalovirus
  treatment of cytomegalovirus retinitis: unsuccessful
